According to US20240226098A1, “COMPOUNDS AND METHODS FOR MODULATING SPLICING” (REMIX THERAPEUTICS INC., priority 2020, published 2024):

Columns and labels:
Assay type in all cases: cell-based
[1] = system: HTT mRNA, alternative junction (AJ); test: Splicing assay (RT-qPCR): increase in HTT alternative junction (AJ) mRNA; conditions: A673 or K562 cell line, 24 hours treatment, top dose 10 uM; concentration having 50% response in AJ increase
Outline: (§1)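 A673 (DMEM, 10% FBS) or K562 (IMDM, 10% FBS) cells treated 24 h at 37 °C with 11-point 3-fold dilutions, top 10 uM, ≤0.25% DMSO. Lysates analysed by one-step RT-qPCR for HTT CJ and AJ isoforms. Normalised to PPIA (A673) or GAPDH/GUSB (K562).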

[2] = system: HTT mRNA, canonical junction (CJ); test: Splicing assay (RT-qPCR): decrease in HTT canonical junction (CJ) mRNA; conditions: A673 or K562 cell line, 24 hours treatment, top dose 10 uM; concentration having 50% response in CJ decrease
Outline: as §1

[3] = system: HTT CJ mRNA; test: Gene panel canonical junction qPCR assay: decrease in HTT CJ mRNA; conditions: protocol as for Table 2, read-out: HTT (IC50, decrease in CJ mRNA levels)
Outline: (§2)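 A673 or K562 cells were treated 24 h at 37 °C with an 11-point 3-fold dilution series (top dose 10 uM final, DMSO ≤0.25%). Lysates went to RT-qPCR for the canonical exon-exon junction transcript, normalized to GAPDH, GUSB or PPIA. Levels were taken as ΔΔCt versus DMSO control and converted to RQ via 2^(−ΔΔCt).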

[4] = system: SMN2 CJ mRNA; test: Gene panel canonical junction qPCR assay: decrease in SMN2 CJ mRNA; conditions: protocol as for Table 2, read-out: SMN2 (IC50, decrease in CJ mRNA levels)
Outline: as §2

[5] = system: Target C CJ mRNA; test: Gene panel canonical junction qPCR assay: decrease in Target C CJ mRNA; conditions: protocol as for Table 2, read-out: Target C (IC50, decrease in CJ mRNA levels)
Outline: as §2

SMILES | AC50 [1] [nM] | AC50 [2] [nM] | IC50 [3] [nM] | IC50 [4] [nM] | IC50 [5] [nM]
Cc1cn2cc(NC(=O)c3ccc(N4CCN(C)C(C)C4)c4ccnnc34)cc(F)c2n1 (stereo in doubt) [Compound 149, 5-[(3S)-3,4-dimethylpiperazin-1-yl]-N-[8-fluoro-2-methylimidazo[1,2-a]pyridin-6-yl]cinnoline-8-carboxamide] | 1000 to 10000 | 1000 to 10000 | 1000 to 10000 | < 100 | 1000 to 10000
Cc1cn2cc(NC(=O)c3ccc(N4CCC(N(C)C)C4)c4ccnnc34)cc(F)c2n1 (stereo not drawn) [Compound 134, 5-[3-(dimethylamino)pyrrolidin-1-yl]-N-[8-fluoro-2-methylimidazo[1,2-a]pyridin-6-yl]cinnoline-8-carboxamide] | 1000 to 10000 | 1000 to 10000 | 1000 to 10000 | < 100 | 1000 to 10000
Cc1cn2cc(NC(=O)c3ccc(N4CCNC(C)C4)c4ccnnc34)cc(F)c2n1 (stereo in doubt) [Compound 146, N-[8-fluoro-2-methylimidazo[1,2-a]pyridin-6-yl]-5-[(3S)-3-methylpiperazin-1-yl]cinnoline-8-carboxamide] | 100 to 1000 | 100 to 1000 | 100 to 1000 | < 100 | > 10000
